How the values were obtained:
[1] = molecular target: T1, 5-hydroxytryptamine receptor 2B (Homo sapiens, UniProt P41595); experiment: Agonist activity at recombinant human 5-HT2B receptor transfected in CHOK1 cells assessed as calcium mobilization by FLIPR assay; assay type: cell-based
[2] = molecular target: T2, 5-hydroxytryptamine receptor 2C (Homo sapiens, UniProt P28335)
T2 sequence (P28335 whole entry): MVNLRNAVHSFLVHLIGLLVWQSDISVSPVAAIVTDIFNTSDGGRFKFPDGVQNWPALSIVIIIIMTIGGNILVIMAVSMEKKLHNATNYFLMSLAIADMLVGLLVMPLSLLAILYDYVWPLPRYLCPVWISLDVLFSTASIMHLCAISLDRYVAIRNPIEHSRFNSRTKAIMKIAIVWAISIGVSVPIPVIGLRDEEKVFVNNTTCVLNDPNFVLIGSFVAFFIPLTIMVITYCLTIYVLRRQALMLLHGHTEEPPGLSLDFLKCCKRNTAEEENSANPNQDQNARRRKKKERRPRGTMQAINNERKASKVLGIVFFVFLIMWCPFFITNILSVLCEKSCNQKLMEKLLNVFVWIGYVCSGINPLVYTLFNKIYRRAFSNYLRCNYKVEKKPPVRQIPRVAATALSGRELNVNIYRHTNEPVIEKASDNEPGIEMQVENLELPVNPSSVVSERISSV
Description: Agonist activity at recombinant human 5-HT2C receptor transfected in CHOK1 cells assessed as calcium mobilization by FLIPR assay

[3] = molecular target: 5-HT2B receptor (Homo sapiens, UniProt P41595); experiment: in vitro
Description: (§1) Agonist activity at recombinant human 5-HT2B receptor transfected in CHOK1 cells assessed as calcium mobilization at 10 uM by FLIPR assay

[4] = in vitro; settings: human, liver microsomes
Description: (§2) Intrinsic clearance in human liver microsomes

[5] = physchem; settings: octanol/water
Description: Lipophilicity, log D of the compound

[6] = in vitro; settings: dog, MDCK, permeability
Description: Permeability in RRCK cells

[7] = tested on: MDR1; experiment: in vitro; settings: dog, MDCK-MDR1, Ratio
Description: Efflux ratio of permeability from basolateral to apical side over apical to basolateral side in MDCK cells expressing MDR1

[8] = molecular target: T2, 5-hydroxytryptamine receptor 2C; experiment: biochemical
Description: Displacement of [3H]-mesulergine from recombinant human 5-HT2C receptor transfected in Swiss mouse 3T3 cells after 150 mins by scintillation proximity assay

[9] = human, microsomes
Description: as §2

[10] = molecular target: T1, 5-hydroxytryptamine receptor 2B; settings: 10 µM
Description: as §1

[11] = dog, mdckii-le
Description: Permeability in RRCK cells

T1 sequence (P41595 whole entry): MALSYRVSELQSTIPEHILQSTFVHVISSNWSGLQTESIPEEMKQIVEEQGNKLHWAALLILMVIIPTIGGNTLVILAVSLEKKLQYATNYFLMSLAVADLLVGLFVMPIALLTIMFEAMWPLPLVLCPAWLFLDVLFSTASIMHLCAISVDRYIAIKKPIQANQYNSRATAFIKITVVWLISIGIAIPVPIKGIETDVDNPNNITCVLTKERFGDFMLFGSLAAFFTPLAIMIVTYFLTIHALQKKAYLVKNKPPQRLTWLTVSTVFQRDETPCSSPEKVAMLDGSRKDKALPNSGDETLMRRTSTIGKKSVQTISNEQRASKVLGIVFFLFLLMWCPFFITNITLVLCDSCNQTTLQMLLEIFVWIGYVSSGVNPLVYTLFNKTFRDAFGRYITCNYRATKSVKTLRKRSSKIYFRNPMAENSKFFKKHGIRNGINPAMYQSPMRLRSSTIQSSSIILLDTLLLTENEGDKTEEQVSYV
Sequence of 5-HT2B receptor (P41595 whole entry): as above

In the case of `Clc1ccc(Cc2cc3c(nn2)CCNCC3)cc1`, the EC50 [1] is reported as 410 nM, the EC50 [2] is reported as 310 nM and the Emax at 10 µM [3] is reported as 63%. The microsomal CLint [4] was under 7 µL/min/mg, the logD [5] was 0.8 and the Papp [6] was 13 ×10⁻⁶ cm/s. For the same compound, the efflux ratio [7] was 1.3 and the Ki [8] was 120 nM.

Compound `Cc1c(Cc2ccccc2)nnc2c1CCNCC2` has an EC50 [2] of 220 nM, a microsomal CLint [4] of under 8 µL/min/mg and a Papp [6] of 14 ×10⁻⁶ cm/s. For the same compound, the efflux ratio [7] was 1.9 and the Ki [8] was 520 nM.

In the case of `O=c1[nH]n(Cc2ccccc2)c2c1CCNCC2`, the EC50 [2] is reported as over 10000 nM, the CLH [9] is reported as under 7000 µL/min/mg and the Emax at 10 µM [3] is reported as 0%. The logD [5] was -0.1, the Papp [6] was under 1 ×10⁻⁶ cm/s and the efflux ratio [7] was 1.2.

`O=c1cc2c(nn1Cc1ccccc1)CCNCC2` gave an EC50 [2] of 30 nM, a CLH [9] of under 7000 µL/min/mg and an Emax at 10 µM [3] of 48%. For the same compound, the logD [5] was 0.3, the Papp [6] was 13 ×10⁻⁶ cm/s and the efflux ratio [7] was 1. For the same compound, the Ki [8] was 10 nM.

`CC(c1ccccc1)c1cc2c(nn1)CCNCC2` (stereo in doubt; 15g) showed an EC50 [2] of 190 nM, an Emax at 10 µM [3] of 36% and a microsomal CLint [4] of under 8 µL/min/mg. It also gave a logD [5] of 0.4, a Papp [6] of 13 ×10⁻⁶ cm/s and an efflux ratio [7] of 1.8. For the same compound, the Ki [8] was 200 nM.

Work on `Clc1ccccc1Cc1cc2c(nn1)CCNCC2` yielded an EC50 [1] of 800 nM, an EC50 [2] of 310 nM and an Emax at 10 µM [3] of 41%. For the same compound, the microsomal CLint [4] was under 7 µL/min/mg, the logD [5] was 0.7 and the Papp [6] was 15 ×10⁻⁶ cm/s. For the same compound, the efflux ratio [7] was 1.1 and the Ki [8] was 200 nM.

For `c1ccc(Cc2nnc3n2CCNCC3)cc1`, the EC50 [2] was over 10000 nM, the CLH [9] was under 8000 µL/min/mg and the Emax at 10 µM [3] was 0%. It also gave a logD [5] of -0.3, a Papp [6] of 2 ×10⁻⁶ cm/s and an efflux ratio [7] of 1.3. The Ki [8] was over 10000 nM.

Compound `O=c1c2c([nH]n1Cc1ccccc1)CCNCC2` has an EC50 [2] of over 10000 nM, an Emax at 10 µM [3] of 0% and a logD [5] of -0.5. For the same compound, the Papp [6] was under 1 ×10⁻⁶ cm/s.

Work on `FC(F)(F)c1cccc(Cc2cc3c(nn2)CCNCC3)c1` yielded an EC50 [1] of 450 nM, an EC50 [2] of 750 nM and an Emax at 10 µM [3] of 57%. It also gave a microsomal CLint [4] of under 7 µL/min/mg, a logD [5] of 0.9 and a Papp [6] of 13 ×10⁻⁶ cm/s. It also gave an efflux ratio [7] of 1.7 and a Ki [8] of 250 nM.

In the case of `c1ccc(Cc2ncc3c(n2)CCNCC3)cc1`, the CLH [9] is reported as under 8000 µL/min/mg.

Compound `c1ccc(Cn2cc3c(n2)CCNCC3)cc1` has a CLH [9] of under 7000 µL/min/mg, an Emax at 10 µM [3] of 3% and a logD [5] of 0.1. For the same compound, the Papp [6] was 13 ×10⁻⁶ cm/s, the efflux ratio [7] was 1 and the Ki [8] was 2700 nM.

`O=c1[nH]c2c(nc1Cc1ccccc1)CCNCC2` gave an EC50 [2] of 70 nM, a CLH [9] of under 8000 µL/min/mg and an Emax at 10 µM [3] of 24%. It also gave a logD [5] of -0.1, an efflux ratio [7] of 3 and a Ki [8] of 110 nM.

With `c1ccc(Cc2cc3c(nn2)CCNCC3)cc1` the EC50 [2] was 130 nM, the Emax at 10 µM [3] was 29% and the microsomal CLint [4] was under 7 µL/min/mg. It also gave a logD [5] of 0, a Papp [6] of 14 ×10⁻⁶ cm/s and an efflux ratio [7] of 1. The Ki [8] was 80 nM.

Work on `CC(c1ccccc1)c1cc2c(nn1)CCNCC2` (stereo in doubt; 15h) yielded an EC50 [2] of 110 nM, an Emax [10] of 55% and a permeability [11] of 14 ×10⁻⁶ cm/s. It also gave a Ki [8] of 170 nM.

For `Fc1ccc(Cc2cc3c(nn2)CCNCC3)cc1`, the EC50 [2] was over 10000 nM, the Emax at 10 µM [3] was 64% and the microsomal CLint [4] was under 7 µL/min/mg. It also gave a logD [5] of 0.2, a Papp [6] of 14 ×10⁻⁶ cm/s and an efflux ratio [7] of 1.2. It also gave a Ki [8] of 450 nM.

With `COc1ccccc1Cc1cc2c(nn1)CCNCC2` the EC50 [2] was over 10000 nM, the Emax at 10 µM [3] was 40% and the microsomal CLint [4] was 9 µL/min/mg. For the same compound, the logD [5] was 0.1, the Papp [6] was 16 ×10⁻⁶ cm/s and the efflux ratio [7] was 1.9. For the same compound, the Ki [8] was 550 nM.
